Assays:
[1] = Inhibitory activity against porcine pancreatic trypsin (TRP)
[2] = Inhibitory activity against porcine pancreatic elastase (PPE)
[3] = Inhibitory activity against bovine pancreatic alpha-chymotrypsin (alpha-CT)
[4] = Inhibitory activity against porcine pancreatic trypsin (TRP); remark: listed apart in the source

Structure (SMILES) | IC50 [1] [nM] | IC50 [2] [nM] | IC50 [3] [nM] | IC50 [4] [nM]
CCCCCCC(NC(=O)c1ccccc1)C(C)(C)C(=O)OC(=O)C(C)(C)C(CCCCCC)NC(=O)c1ccccc1 (centres undefined) [1,1-dimethyl-2-phenylcarboxamidononanoic anhydride] | 3300 | 180 | 44 | –
CC(C)(C(=O)OC(=O)C(C)(C)C(CCc1ccccc1)NC(=O)c1ccc(C#N)cc1)C(CCc1ccccc1)NC(=O)c1ccc(C#N)cc1 (centres undefined) [[2,2-dimethyl-3-(N-(4-cyanobenzoyl)aminoi)-5-phenylpentanoic anhydride]] | – | 36 | 2.1 | 300
CCC(NC(=O)c1ccccc1)C(C)(C)C(=O)OC(=O)C(C)(C)C(CC)NC(=O)c1ccccc1 (centres undefined) [1,1-dimethyl-2-phenylcarboxamidopentanoic anhydride] | 2200 | 210 | 72 | –
CCCC(=O)NC(CCc1ccccc1)C(C)(C)C(=O)OC(=O)C(C)(C)C(CCc1ccccc1)NC(=O)CCC (centres undefined) [1,1-dimethyl-4-phenyl-2-propylcarboxamidopentanoic anhydride] | 1200 | – | – | –
CC(C)(C(=O)OC(=O)C(C)(C)C(NC(=O)c1ccc(C#N)cc1)c1ccccc1Cl)C(NC(=O)c1ccc(C#N)cc1)c1ccccc1Cl (centres undefined) [2-(2-chlorophenyl)-2-(4-cyanophenylcarboxamido)-1,1-dimethylpropanoic anhydride] | – | 1100 | 250 | 8200
CCCCC(NC(=O)c1ccccc1)C(C)(C)C(=O)OC(=O)C(C)(C)C(CCCC)NC(=O)c1ccccc1 (centres undefined) [1,1-dimethyl-2-phenylcarboxamidoheptanoic anhydride] | 2900 | 34 | 5.3 | –
CC(C)(CNC(=O)c1ccccc1)C(=O)OC(=O)C(C)(C)CNC(=O)c1ccccc1 [1,1-dimethyl-2-phenylcarboxamidopropanoic anhydride] | 990 | 2600 | 140 | –
CCCCCC(NC(=O)CCC)C(C)(C)C(=O)OC(=O)C(C)(C)C(CCCCC)NC(=O)CCC (centres undefined) [1,1-dimethyl-2-propylcarboxamidooctanoic anhydride] | 18000 | 55 | 810 | –
CC(C)(C(=O)OC(=O)C(C)(C)C(NC(=O)c1ccc(C#N)cc1)C1CC=CCC1)C(NC(=O)c1ccc(C#N)cc1)C1CC=CCC1 (centres undefined) [2-(4-cyanophenylcarboxamido)-2-cyclohex-3-enyl-1,1-dimethylpropanoic anhydride] | 1600 | 180 | 220 | –
CCCCCC(NC(=O)c1ccccc1)C(C)(C)C(=O)OC(=O)C(C)(C)C(CCCCC)NC(=O)c1ccccc1 (centres undefined) [1,1-dimethyl-2-phenylcarboxamidooctanoic anhydride] | 3900 | 61 | 31 | –
CC(C)(C(=O)OC(=O)C(C)(C)C(NC(=O)c1ccc(C#N)cc1)c1ccccc1)C(NC(=O)c1ccc(C#N)cc1)c1ccccc1 (centres undefined) [2-(4-cyanophenylcarboxamido)-1,1-dimethyl-2-phenylpropanoic anhydride] | – | 210 | 15 | 1800
CCCC(NC(=O)c1ccccc1)C(C)(C)C(=O)OC(=O)C(C)(C)C(CCC)NC(=O)c1ccccc1 (centres undefined) [1,1-dimethyl-2-phenylcarboxamidohexanoic anhydride] | 8800 | – | 49 | –
Cc1ccccc1C(NC(=O)c1ccc(C#N)cc1)C(C)(C)C(=O)OC(=O)C(C)(C)C(NC(=O)c1ccc(C#N)cc1)c1ccccc1C (centres undefined) [2-(4-cyanophenylcarboxamido)-1,1-dimethyl-2-(2-methylphenyl)propanoic anhydride] | – | 2100 | 190 | 18000
CC(C)(C(=O)OC(=O)C(C)(C)C(CCc1ccccc1)NC(=O)c1ccccc1)C(CCc1ccccc1)NC(=O)c1ccccc1 (centres undefined) [1,1-dimethyl-4-phenyl-2-phenylcarboxamidopentanoic anhydride] | 2700 | 64 | 18 | –
